≈ marks a conversion by molar mass, not a printed value. Where two headings read alike, the source gives them in different places.
What was measured:
Assay type in all cases: cell-based
[1] = system: Porphyromonas gingivalis JCM 8525; experiment: MIC by Agar Dilution Test, Pg-1; details: read-out: Minimum inhibitory concentration (MIC)
Experimental: (§1) Minimum inhibitory concentration (MIC) was determined by Agar Dilution Test (ADT).
(§2) Each antibacterial composition obtained in Example 1 was dissolved in ethanol or water (according to solubility of each antibacterial composition) to carry out two-fold serial dilution. A hundred μl of the resultant was added to a 10 ml sterilized agar medium (skin-related bacteria and standard bacteria in Mueller-Hinton Medium (Difco), yeast and filamentous bacteria in Sabroud Medium (Difco) and anaerobic bacteria in Trypticase Soy agar (BBL)), well agitated, transferred to a 9 cmf petri dish and immobilized at room temperature. To this petri dish, a 27-spot microplanter MIT-P from Sakuma Seisakusho, LTD. was used to spot 1×10^5 cfu (colony forming unit) of skin-related bacteria and standard bacteria, and the resultants were cultured at 37° C. for 18 hours. Anaerobic bacteria are cultured at 37° C. for 72 hours under anaerobic conditions (using BBL gas pack anaerobic system). After completion of cultivation, growth of each bacterium was compared with that in a petri dish with alcohol alone (blank). A concentration of a sample without a bacterium growth was determined as the minimum inhibitory concentration (MIC).
(§3) As comparative substances, butylparaben (BPHB) and triclosan were determined as well.

[2] = system: Staphyrococcus epidermidis ATCC 12228; experiment: MIC by Agar Dilution Test, Se-3; details: read-out: Minimum inhibitory concentration (MIC)
Experimental: as §1, §2, §3

[3] = system: Actinomyces naeslundii JCM 8350; experiment: MIC by Agar Dilution Test, Aa-1; details: read-out: Minimum inhibitory concentration (MIC)
Experimental: as §1, §2, §3

[4] = system: Staphyrococcus epidermidis var. h-6; experiment: MIC by Agar Dilution Test, Se-2; details: read-out: Minimum inhibitory concentration (MIC)
Experimental: as §1, §2, §3

[5] = system: Corynebacterium xerosis JCM 1324; experiment: MIC by Agar Dilution Test, Cx-2; details: read-out: Minimum inhibitory concentration (MIC)
Experimental: as §1, §2, §3

[6] = system: Bacteroides fragilis GM 7000 JCM 5560; experiment: MIC by Agar Dilution Test, Bf-1; details: read-out: Minimum inhibitory concentration (MIC)
Experimental: as §1, §2, §3
(§4) Minimum inhibitory concentration was determined by Agar Dilution Test described in Example 3 to confirm the difference of antibacterial activities at different mixture ratios.

[7] = system: Staphyrococcus epidermidis JCM 2414; experiment: MIC by Agar Dilution Test, Se-1; details: read-out: Minimum inhibitory concentration (MIC)
Experimental: as §1, §2, §3

[8] = system: Actinomyces viscosus JCM 8352; experiment: MIC by Agar Dilution Test, Av-1; details: read-out: Minimum inhibitory concentration (MIC)
Experimental: as §1, §2, §3

[9] = system: Staphyrococcus aureus ATCC 6538; experiment: MIC by Agar Dilution Test, Sa-4; details: read-out: Minimum inhibitory concentration (MIC)
Experimental: as §1, §2, §3, §4

[10] = system: Fusobacterium nucleatum JCM 6328; experiment: MIC by Agar Dilution Test, Fn-1; details: read-out: Minimum inhibitory concentration (MIC)
Experimental: as §1, §2, §3

[11] = system: Malassezia furfur IFO 0656; experiment: MIC by Agar Dilution Test, Mf-1; details: read-out: Minimum inhibitory concentration (MIC)
Experimental: as §1, §2, §3

[12] = system: Bacillus subtilis PCI 219 IFO 3134; experiment: MIC by Agar Dilution Test, Bs-1; details: read-out: Minimum inhibitory concentration (MIC)
Experimental: as §1, §2, §3, §4

[13] = system: Propionibacterium acnes JCM 6473; experiment: MIC by Agar Dilution Test, Pa-2; details: Cutibacterium acnes, read-out: Minimum inhibitory concentration (MIC)
Experimental: as §1, §2, §3

[14] = system: Staphyrococcus aureus 209P IAM 12082; experiment: MIC by Agar Dilution Test, Sa-3; details: read-out: Minimum inhibitory concentration (MIC)
Experimental: as §1, §2, §3

[15] = system: Prevotella intermedia JCM 6322; experiment: MIC by Agar Dilution Test, Pt-1; details: read-out: Minimum inhibitory concentration (MIC)
Experimental: as §1, §2, §3, §4

[16] = system: Alicyclobacillus Acidocaldarius (NCIMB); experiment: MIC using heat-resistant acidophilic bacteria (liquid medium, turbidity); details: spores in AAM liquid medium, 50° C., 10 days; growth inhibited in all five media
Experimental: (§5) Spores of Alicyclobacillus Acidocaldarius (NCIMB) and Alicyclobacillus Acidoterrestris (NCIMB) were diluted with buffered saline to 1-2 million/100 μl, heated at 80° C. for 10 minutes, and added for 100 μl each per 5 ml of AAM (Alicyclobacillus Acidoterrestris medium) liquid medium. To the test media prepared as above, antibacterial composition (A) obtained in Example 1 was added according to the following steps. Twenty mg/ml, 10 mg/ml, 5 mg/ml and 2.5 mg/ml antibacterial composition (A) in grapefruit flavors were added to respective media (0.1%) (final concentration of antibacterial composition (A): 20 ppm, 10 ppm, 5 ppm and 2.5 ppm). As controls, a medium with 0.1% grapefruit flavor and a blank medium were prepared to confirm that the bacteria grow without a problem. The thus-prepared media were cultured at 50° C. for 10 days, bacteria growth was determined based on the turbidity of the media associated with proliferation of bacteria, thereby checking growth control effects. For each test bacterium and each sample, five media were subjected to the experiment, and a concentration at which bacteria in every media were inhibited was determined as the minimum inhibitory concentration (MIC).
(§6) For comparison, sucrose fatty acid ester was also determined.

[17] = system: Alicyclobacillus Acidoterrestris (NCIMB); experiment: as above; details: spores in AAM liquid medium, 50° C., 10 days; growth inhibited in all five media
Experimental: as §5, §6

[18] = JCM8525, Pg-1, Trypticase Soy agar, 37° C., 72 hours, anaerobic
[19] = Se-3, Mueller-Hinton agar, 37° C., 18 hours
[20] = JCM8350, Aa-1, Trypticase Soy agar, 37° C., 72 hours, anaerobic
[21] = Se-2, Mueller-Hinton agar, 37° C., 18 hours
[22] = JCM1324, Cx-2, Mueller-Hinton agar, 37° C., 18 hours
[23] = JCM5560, Bf-1, Trypticase Soy agar, 37° C., 72 hours, anaerobic
[24] = Se-1, Mueller-Hinton agar, 37° C., 18 hours
[25] = JCM8352, Av-1, Trypticase Soy agar, 37° C., 72 hours, anaerobic
[26] = Sa-4, Mueller-Hinton agar, 37° C., 18 hours
[27] = JCM6328, Fn-1, Trypticase Soy agar, 37° C., 72 hours, anaerobic
[28] = Mf-1 (yeast), Sabroud Medium agar
[29] = IFO3134, Bs-1, Mueller-Hinton agar, 37° C., 18 hours
[30] = JCM6473, Pa-2, Trypticase Soy agar, 37° C., 72 hours, anaerobic
[31] = Sa-3, Mueller-Hinton agar, 37° C., 18 hours
[32] = JCM6322, Pt-1, Trypticase Soy agar, 37° C., 72 hours, anaerobic

Row | Molecule | MIC [1, 18] | MIC [2, 19] | MIC [3, 20] | MIC [4, 21] | MIC [5, 22] | MIC [6, 23] | MIC [7, 24] | MIC [8, 25] | MIC [9, 26] | MIC [10, 27] | MIC [11, 28] | MIC [12, 29] | MIC [13, 30] | MIC [14, 31] | MIC [15, 32] | MIC ([2]; 18 h) | MIC ([4]; 18 h) | MIC ([5]; JCM1324, 18 h) | MIC ([7]; 18 h) | MIC ([9]; 18 h) | further results
1 | CC(C)=CCC/C(C)=C\Cc1c2occc2c(O)c2ccc(=O)oc12 [Antibacterial composition (G), 9-(3′,7′-dimethyl-2′,6′-octadienyl)-4-hydroxy-7H-furo[3,2-γ][1]benzopyran-7-one] | 50 µg/mL (≈ 148 µM) | 200 µg/mL (≈ 591 µM) | 200 µg/mL (≈ 591 µM) | 200 µg/mL (≈ 591 µM) | 200 µg/mL (≈ 591 µM) | 100 µg/mL (≈ 296 µM) | 200 µg/mL (≈ 591 µM) | 100 µg/mL (≈ 296 µM) | 200 µg/mL (≈ 591 µM) | 50 µg/mL (≈ 148 µM) | 50 µg/mL (≈ 148 µM) | 200 µg/mL (≈ 591 µM) | 100 µg/mL (≈ 296 µM) | 100 µg/mL (≈ 296 µM) | 100 µg/mL (≈ 296 µM) | – | – | – | – | – | –
2 | sucrose fatty acid ester | – | – | – | – | – | – | – | – | – | – | – | – | – | – | – | – | – | – | – | – | Minimum inhibitory concentration (MIC) [16]: 20 ppm; Minimum inhibitory concentration (MIC) [17]: 20 ppm
3 | COc1cc(O)c2ccc(=O)oc2c1C/C=C(/C)CCC=C(C)C [Antibacterial composition (F), 8-(3′,7′-dimethyl-2′,6′-octadienyl)-5-hydroxy-7-methoxy-2H-1-benzopyran-2-one] | 25 µg/mL (≈ 76.1 µM) | 200 µg/mL (≈ 609 µM) | 25 µg/mL (≈ 76.1 µM) | 200 µg/mL (≈ 609 µM) | 200 µg/mL (≈ 609 µM) | 100 µg/mL (≈ 304 µM) | 200 µg/mL (≈ 609 µM) | 25 µg/mL (≈ 76.1 µM) | 200 µg/mL (≈ 609 µM) | 25 µg/mL (≈ 76.1 µM) | 25 µg/mL (≈ 76.1 µM) | 200 µg/mL (≈ 609 µM) | 25 µg/mL (≈ 76.1 µM) | 25 µg/mL (≈ 76.1 µM) | 100 µg/mL (≈ 304 µM) | – | – | – | – | – | –
4 | Oc1cc(Cl)ccc1Oc1ccc(Cl)cc1Cl [Triclosan, triclosan, reference compound] | – | – | – | – | – | – | – | – | – | – | – | – | – | – | – | 1.6 µg/mL (≈ 5.53 µM) | 1.6 µg/mL (≈ 5.53 µM) | 3.1 µg/mL (≈ 10.7 µM) | 1.6 µg/mL (≈ 5.53 µM) | 1.6 µg/mL (≈ 5.53 µM) | MIC [11]: 1.6 µg/mL (≈ 5.53 µM); MIC ([12]; IFO3134, 18 h): 0.78 µg/mL (≈ 2.69 µM); MIC ([14]; 18 h): 1.6 µg/mL (≈ 5.53 µM)
5 | CCCCOC(=O)c1ccc(O)cc1 [Butylparaben, butylparaben, reference compound] | – | – | – | – | – | – | – | – | – | – | – | – | – | – | – | 200 µg/mL (≈ 1030 µM) | 200 µg/mL (≈ 1030 µM) | 50 µg/mL (≈ 257 µM) | 200 µg/mL (≈ 1030 µM) | 200 µg/mL (≈ 1030 µM) | MIC ([1]; JCM8525, 72 h): 50 µg/mL (≈ 257 µM); MIC ([3]; JCM8350, 72 h): 100 µg/mL (≈ 515 µM); MIC ([6]; JCM5560, 72 h): 50 µg/mL (≈ 257 µM); MIC ([8]; JCM8352, 72 h): 100 µg/mL (≈ 515 µM); MIC ([10]; JCM6328, 72 h): 100 µg/mL (≈ 515 µM); MIC [11]: 100 µg/mL (≈ 515 µM); MIC ([12]; IFO3134, 18 h): 200 µg/mL (≈ 1030 µM); MIC ([13]; JCM6473, 72 h): 100 µg/mL (≈ 515 µM); MIC ([14]; 18 h): 100 µg/mL (≈ 515 µM); MIC ([15]; JCM6322, 72 h): 100 µg/mL (≈ 515 µM)

— US20080096958A1, “Antibacterial Composition” (priority 2004, published 2008)
